Measurements: patent publication US10206394B2, “Herbicidal compounds” (Syngenta Participations AG, priority 2014, dated 2019)
Read-outs that look alike come from different tables or passages of the source.

What was measured:
Test in all cases: Glasshouse assay for herbicidal activity (pre- and post-emergence), percentage phytotoxicity
Assay type in all cases: in vivo
[1] = tested on: Alopecurus myosuroides (ALOMY); conditions: Alopecurus myosuroides
How it was run: (§1)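 Herbicide was applied to potted plants sown in standard soil, one day after sowing for PRE and after about 12 days for POST. Visual percentage damage ratings followed at 15 DAA (POST) and 20 DAA (PRE).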

[2] = tested on: Avena fatua (AVEFA); conditions: Avena fatua
How it was run: as §1

[3] = tested on: Echinochloa crus-galli (ECHCG); conditions: Echinochloa crus-galli
How it was run: as §1

[4] = tested on: Lolium perenne (LOLPE); conditions: Lolium perenne
How it was run: as §1

[5] = post-emergence, 360 h, 250 g/ha, post-emergence, 15 DAA, visual assessment (100%=total damage, 0%=no damage), read-out: Post-emergence herbicidal activity (percentage phytotoxicity) ALOMY POST
[6] = pre-emergence, 480 h, 250 g/ha, pre-emergence, 20 DAA, visual assessment (100%=total damage, 0%=no damage), read-out: Pre-emergence herbicidal activity (percentage phytotoxicity) ALOMY PRE
[7] = post-emergence, 360 h, 250 g/ha, post-emergence, 15 DAA, visual assessment (100%=total damage, 0%=no damage), read-out: Post-emergence herbicidal activity (percentage phytotoxicity) AVEFA POST
[8] = pre-emergence, 480 h, 250 g/ha, pre-emergence, 20 DAA, visual assessment (100%=total damage, 0%=no damage), read-out: Pre-emergence herbicidal activity (percentage phytotoxicity) AVEFA PRE
[9] = post-emergence, 360 h, 250 g/ha, post-emergence, 15 DAA, visual assessment (100%=total damage, 0%=no damage), read-out: Post-emergence herbicidal activity (percentage phytotoxicity) ECHCG POST
[10] = pre-emergence, 480 h, 250 g/ha, pre-emergence, 20 DAA, visual assessment (100%=total damage, 0%=no damage), read-out: Pre-emergence herbicidal activity (percentage phytotoxicity) ECHCG PRE
[11] = post-emergence, 360 h, 250 g/ha, post-emergence, 15 DAA, visual assessment (100%=total damage, 0%=no damage), read-out: Post-emergence herbicidal activity (percentage phytotoxicity) LOLPE POST
[12] = pre-emergence, 480 h, 250 g/ha, pre-emergence, 20 DAA, visual assessment (100%=total damage, 0%=no damage), read-out: Pre-emergence herbicidal activity (percentage phytotoxicity) LOLPE PRE

For `Cc1cc(-c2ncc(Cl)cn2)cc(C)c1C1C(=O)CC(CC(=O)N(C)Cc2cccc(F)c2)C1=O` (stereo not shown) [Compound B338], the pest or weed control at 250 g/ha ([1]; post-emergence, 360 h, Rate 250 g/ha, post-emergence, visual assessment 15 DAA, 100%=total damage, 0%=no damage, read-out: Post-emergence herbicidal activity (percentage phytotoxicity) ALOMY POST) was 100%, the pest or weed control at 250 g/ha ([1]; pre-emergence, 480 h, Rate 250 g/ha, pre-emergence, visual assessment 20 DAA, 100%=total damage, 0%=no damage, read-out: Pre-emergence herbicidal activity (percentage phytotoxicity) ALOMY PRE) was 100% and the pest or weed control at 250 g/ha ([2]; post-emergence, 360 h, Rate 250 g/ha, post-emergence, visual assessment 15 DAA, 100%=total damage, 0%=no damage, read-out: Post-emergence herbicidal activity (percentage phytotoxicity) AVEFA POST) was 100%. The pest or weed control at 250 g/ha ([2]; pre-emergence, 480 h, Rate 250 g/ha, pre-emergence, visual assessment 20 DAA, 100%=total damage, 0%=no damage, read-out: Pre-emergence herbicidal activity (percentage phytotoxicity) AVEFA PRE) was 80%, the pest or weed control at 250 g/ha ([3]; post-emergence, 360 h, Rate 250 g/ha, post-emergence, visual assessment 15 DAA, 100%=total damage, 0%=no damage, read-out: Post-emergence herbicidal activity (percentage phytotoxicity) ECHCG POST) was 100% and the pest or weed control at 250 g/ha ([3]; pre-emergence, 480 h, Rate 250 g/ha, pre-emergence, visual assessment 20 DAA, 100%=total damage, 0%=no damage, read-out: Pre-emergence herbicidal activity (percentage phytotoxicity) ECHCG PRE) was 100%. It also gave a pest or weed control at 250 g/ha ([4]; post-emergence, 360 h, Rate 250 g/ha, post-emergence, visual assessment 15 DAA, 100%=total damage, 0%=no damage, read-out: Post-emergence herbicidal activity (percentage phytotoxicity) LOLPE POST) of 90% and a pest or weed control at 250 g/ha ([4]; pre-emergence, 480 h, Rate 250 g/ha, pre-emergence, visual assessment 20 DAA, 100%=total damage, 0%=no damage, read-out: Pre-emergence herbicidal activity (percentage phytotoxicity) LOLPE PRE) of 100%.
Compound `CC#Cc1cc(C)c(C2C(=O)CC(CC(=O)NCC(C)(C)C)C2=O)c(CC)c1` (stereo not shown) [Compound A53] has a pest or weed control at 250 g/ha ([1]; post-emergence, 360 h, Rate 250 g/ha, post-emergence, assessed visually 15 DAA, 100%=total damage, 0%=no damage, read-out: Post-emergence herbicidal activity (percentage phytotoxicity) ALOMY POST) of 100%, a pest or weed control at 250 g/ha ([1]; pre-emergence, 480 h, Rate 250 g/ha, pre-emergence, assessed visually 20 DAA, 100%=total damage, 0%=no damage, read-out: Pre-emergence herbicidal activity (percentage phytotoxicity) ALOMY PRE) of 90% and a pest or weed control at 250 g/ha ([2]; post-emergence, 360 h, Rate 250 g/ha, post-emergence, assessed visually 15 DAA, 100%=total damage, 0%=no damage, read-out: Post-emergence herbicidal activity (percentage phytotoxicity) AVEFA POST) of 90%. The pest or weed control at 250 g/ha ([2]; pre-emergence, 480 h, Rate 250 g/ha, pre-emergence, assessed visually 20 DAA, 100%=total damage, 0%=no damage, read-out: Pre-emergence herbicidal activity (percentage phytotoxicity) AVEFA PRE) was 80%, the pest or weed control at 250 g/ha ([3]; post-emergence, 360 h, Rate 250 g/ha, post-emergence, assessed visually 15 DAA, 100%=total damage, 0%=no damage, read-out: Post-emergence herbicidal activity (percentage phytotoxicity) ECHCG POST) was 100% and the pest or weed control at 250 g/ha ([3]; pre-emergence, 480 h, Rate 250 g/ha, pre-emergence, assessed visually 20 DAA, 100%=total damage, 0%=no damage, read-out: Pre-emergence herbicidal activity (percentage phytotoxicity) ECHCG PRE) was 100%. For the same compound, the pest or weed control at 250 g/ha ([4]; post-emergence, 360 h, Rate 250 g/ha, post-emergence, assessed visually 15 DAA, 100%=total damage, 0%=no damage, read-out: Post-emergence herbicidal activity (percentage phytotoxicity) LOLPE POST) was 90% and the pest or weed control at 250 g/ha ([4]; pre-emergence, 480 h, Rate 250 g/ha, pre-emergence, assessed visually 20 DAA, 100%=total damage, 0%=no damage, read-out: Pre-emergence herbicidal activity (percentage phytotoxicity) LOLPE PRE) was 90%.
With `Cc1cc(C)c(C2C(=O)CC(CC(=O)NCc3ccc(F)cc3)C2=O)c(C)c1` (stereo not shown) [Compound B16] the pest or weed control at 250 g/ha [1, 5] was 70%, the pest or weed control at 250 g/ha [1, 6] was 80% and the pest or weed control at 250 g/ha [2, 7] was 70%. The pest or weed control at 250 g/ha [2, 8] was 30%, the pest or weed control at 250 g/ha [3, 9] was 90% and the pest or weed control at 250 g/ha [3, 10] was 90%. For the same compound, the pest or weed control at 250 g/ha [4, 11] was 90% and the pest or weed control at 250 g/ha [4, 12] was 90%.
`Cc1cc(-c2ncc(F)cc2F)cc(C)c1C1C(=O)CC(CC(=O)NCc2ccc(Br)cc2)C1=O` (stereo not shown) [Compound B100] showed a pest or weed control at 250 g/ha [1, 5] of 100%, a pest or weed control at 250 g/ha [1, 6] of 80% and a pest or weed control at 250 g/ha [2, 7] of 100%. It also gave a pest or weed control at 250 g/ha [2, 8] of 60%, a pest or weed control at 250 g/ha [3, 9] of 100% and a pest or weed control at 250 g/ha [3, 10] of 100%. For the same compound, the pest or weed control at 250 g/ha [4, 11] was 100% and the pest or weed control at 250 g/ha [4, 12] was 90%.
For `C=C(Cl)CNC(=O)CC1CC(=O)C(c2c(C)cc(C)cc2C)C1=O` (stereo not shown) [Compound B133], the pest or weed control at 250 g/ha [1, 5] was 50%, the pest or weed control at 250 g/ha [1, 6] was 80% and the pest or weed control at 250 g/ha [2, 7] was 60%. The pest or weed control at 250 g/ha [2, 8] was 0%, the pest or weed control at 250 g/ha [3, 9] was 50% and the pest or weed control at 250 g/ha [3, 10] was 80%. The pest or weed control at 250 g/ha [4, 11] was 90% and the pest or weed control at 250 g/ha [4, 12] was 100%.
